For 25 compounds, IC50 results are on record in US20240417398A1, “TETRAHYDRONAPTHYRIDINE AND RELATED ANALOGS FOR INHIBITING YAP/TAZ-TEAD” (SpringWorks Therapeutics, Inc., priority 2023, published 2024).

The test system of the experiment is YAP/TAZ-TEAD transcription. The experiment in a line: Reporter gene assay for measuring the inhibition of YAP/TAZ-TEAD transcription (TEAD-responsive element luciferase reporter, Hek293T cells). The settings on record: Homo sapiens, HEK-293T, 24 h, Hek293T cells transfected with TEAD-responsive element luciferase reporter, 24 hours incubation. It counts as cell-based. Here is the method:
Hek293T cells were cultured in DMEM supplemented with 10% fetal bovine serum, Sodium pyruvate, Sodium bicarbonate, L-glutamine. The cells were harvested and transiently transfected with TEAD-responsive element luciferase reporter. Transfected cells were plated in 384-well plate containing pre-diluted compounds. After 24 hours incubation at 37° C./5% CO2, assay plates were cooled to room temperature and levelled to an equal volume per well, prior to the addition of 25 uL luciferase substrate SteadyLite (Perkin Elmer)/well. The plate was shaken for 10 min at 600 rpm, centrifuged for 1 min at 500 rpm and measured with an Envision reader (PerkinElmer). The amount of relative light units produced by the TEAD reporter was used to calculate the percentage of inhibition.
The percent of reporter inhibition was calculated in the presence of a positive control inhibitor (100% inhibition) versus a condition with the presence of the vehicle basal activity of the reporter (0% inhibition). The ability of a test compound to inhibit this activity was determined as: Percentage inhibition=[1-((RLU determined in the presence of vehicle−RLU determined for sample with test compound present) divided by (RLU determined in the presence of vehicle−RLU determined for sample with positive control inhibitor))]*100.
The activities of example compounds tested are depicted in Table 3. The activity ranges A, B and C refer to IC50 values in the reporter gene assay as follows: “A”: IC50<1 μM; “B”: 1 μM≤IC50 10 μM and “C”: IC50>10 μM; NT=not tested.

In turn, `C=CC(=O)NCC1Cc2c(Oc3cccnc3)cccc2N(c2ccc(C(F)(F)F)cc2)C1` (stereo not shown) [Cpd. No. 3, N-((5-(pyridin-3-yloxy)-1-(4-(trifluoromethyl)phenyl)-1,2,3,4-tetrahydroquinolin-3-yl)methyl)acrylamide] had an IC50 below 1000 nM. `CCC(=O)NCC1Cc2c(OCc3cc(=O)[nH]c(=O)[nH]3)cccc2N(c2ccc(C(F)(F)F)cc2)C1` (stereo not shown) [Cpd. No. 5, N-((5-((2,6-dioxo-1,2,3,6-tetrahydropyrimidin-4-yl)methoxy)-1-(4-(trifluoromethyl)phenyl)-1,2,3,4-tetrahydroquinolin-3-yl)methyl)propionamide] showed an IC50 below 1000 nM. The figure for `CS(=O)(=O)NCC1Cc2c(OCc3cc(=O)[nH]c(=O)[nH]3)cccc2N(c2ccc(C(F)(F)F)cc2)C1` (stereo not shown) [Cpd. No. 8, N-((5-((2,6-dioxo-1,2,3,6-tetrahydropyrimidin-4-yl)methoxy)-1-(4-(trifluoromethyl)phenyl)-1,2,3,4-tetrahydroquinolin-3-yl)methyl)methanesulfonamide] is 1000 to 10000 nM. The result for `CS(=O)(=O)NCC1Cc2c(OCc3cc[nH]c(=O)c3)cccc2N(c2ccc(C(F)(F)F)cc2)C1` (stereo not shown) [Cpd. No. 9, N-((5-((2-oxo-1,2-dihydropyridin-4-yl)methoxy)-1-(4-(trifluoromethyl)phenyl)-1,2,3,4-tetrahydroquinolin-3-yl)methyl)methanesulfonamide] reads below 1000 nM. The figure for `O=C(O)CC1Cc2ncccc2N(c2ccc(C(F)(F)F)cc2)C1` (stereo not shown) [Cpd. No. 13, 2-(1-(4-(trifluoromethyl)phenyl)-1,2,3,4-tetrahydro-1,5-naphthyridin-3-yl)acetic acid] is 1000 to 10000 nM; for `CC(=O)NCC1Cc2c(ccc[n+]2[O-])N(c2ccc(C(F)(F)F)cc2)C1` (stereo not shown) [Cpd. No. 16, 7-(acetamidomethyl)-5-(4-(trifluoromethyl)phenyl)-5,6,7,8-tetrahydro-1,5-naphthyridine 1-oxide] it is 1000 to 10000 nM.

On to `CCC(=O)NCC1Cc2ncccc2N(c2ccc(C(F)(F)F)cc2)C1` (stereo not shown) [Cpd. No. 17, N-((1-(4-(trifluoromethyl)phenyl)-1,2,3,4-tetrahydro-1,5-naphthyridin-3-yl)methyl)propionamide], for which the IC50 was below 1000 nM. The figure for `O=C(NCC1Cc2ncccc2N(c2ccc(C(F)(F)F)cc2)C1)C1CC1` (stereo not shown) [Cpd. No. 18, N-((1-(4-(trifluoromethyl)phenyl)-1,2,3,4-tetrahydro-1,5-naphthyridin-3-yl)methyl)cyclopropanecarboxamide] is below 1000 nM; for `CNS(=O)(=O)NCC1Cc2ncccc2N(c2ccc(C(F)(F)F)cc2)C1` (stereo not shown) [Cpd. No. 19, N-(methylsulfamoyl)-1-[1-[4-(trifluoromethyl)phenyl]-3,4-dihydro-2H-1,5-naphthyridin-3-yl]methanamine] it is below 1000 nM; for `O=C(O)/C=C/C1Cc2ncccc2N(c2ccc(C(F)(F)F)cc2)C1` (stereo not shown) [Cpd. No. 20, (E)-3-(1-(4-(trifluoromethyl)phenyl)-1,2,3,4-tetrahydro-1,5-naphthyridin-3-yl)acrylic acid] it is below 1000 nM. For the compound `C=CC(=O)NCC1Cc2nc(OC)ccc2N(c2ccc(C(F)(F)F)cc2)C1` (stereo not shown) [Cpd. No. 21, N-((6-methoxy-1-(4-(trifluoromethyl)phenyl)-1,2,3,4-tetrahydro-1,5-naphthyridin-3-yl)methyl)acrylamide], the IC50 was below 1000 nM. The figure for `COc1ccc2c(n1)CC(CNC(C)=O)CN2c1ccc(C(F)(F)F)cc1` (stereo not shown) [Cpd. No. 22, N-((6-methoxy-1-(4-(trifluoromethyl)phenyl)-1,2,3,4-tetrahydro-1,5-naphthyridin-3-yl)methyl)acetamide] is below 1000 nM. The figure for `CC(=O)NCC1Cc2nc(O)ccc2N(c2ccc(C(F)(F)F)cc2)C1` (stereo not shown) [Cpd. No. 23, N-((6-hydroxy-1-(4-(trifluoromethyl)phenyl)-1,2,3,4-tetrahydro-1,5-naphthyridin-3-yl)methyl)acetamide] is above 10000 nM; for `O=C(O)COC1Cc2ncccc2N(c2ccc(C(F)(F)F)cc2)C1` (stereo not shown) [Cpd. No. 24, 2-((1-(4-(trifluoromethyl)phenyl)-1,2,3,4-tetrahydro-1,5-naphthyridin-3-yl)oxy)acetic acid] it is above 10000 nM.

Regarding `FC(F)(F)c1ccc(N2CC(CNC3COC3)Cc3ncccc32)cc1` (stereo not shown) [Cpd. No. 25, N-((1-(4-(trifluoromethyl)phenyl)-1,2,3,4-tetrahydro-1,5-naphthyridin-3-yl)methyl)oxetan-3-amine], the IC50 was above 10000 nM. The result for `CC(=O)NCC1Cc2c(cc[nH]c2=O)N(c2ccc(C(F)(F)F)cc2)C1` (stereo not shown) [Cpd. No. 27, N-((5-oxo-1-(4-(trifluoromethyl)phenyl)-1,2,3,4,5,6-hexahydro-1,6-naphthyridin-3-yl)methyl)acetamide] reads above 10000 nM; that for `O=C1CC[C@@H](C(=O)NCC2Cc3ncccc3N(c3ccc(C(F)(F)F)cc3)C2)N1` (stereo partly drawn) [Cpd. No. 28, (2S)-5-oxo-N-((1-(4-(trifluoromethyl)phenyl)-1,2,3,4-tetrahydro-1,5-naphthyridin-3-yl)methyl)pyrrolidine-2-carboxamide], above 10000 nM; that for `O=C1CC[C@H](C(=O)NCC2Cc3ncccc3N(c3ccc(C(F)(F)F)cc3)C2)N1` (stereo partly drawn) [Cpd. No. 29, (2R)-5-oxo-N-((1-(4-(trifluoromethyl)phenyl)-1,2,3,4-tetrahydro-1,5-naphthyridin-3-yl)methyl)pyrrolidine-2-carboxamide], below 1000 nM. With `Cn1cncc1C(=O)NCC1Cc2ncccc2N(c2ccc(C(F)(F)F)cc2)C1` (stereo not shown) [Cpd. No. 30, 1-methyl-N-((1-(4-(trifluoromethyl)phenyl)-1,2,3,4-tetrahydro-1,5-naphthyridin-3-yl)methyl)-1H-imidazole-5-carboxamide], the IC50 was above 10000 nM. Compound `O=C1CCCN1CC1Cc2ncccc2N(c2ccc(C(F)(F)F)cc2)C1` (stereo not shown) [Cpd. No. 31, 1-((1-(4-(trifluoromethyl)phenyl)-1,2,3,4-tetrahydro-1,5-naphthyridin-3-yl)methyl)pyrrolidin-2-one] displayed an IC50 above 10000 nM. Compound `CC(=O)NCc1cc2c(c(-c3ccc(C(F)(F)F)cc3)c1)CNCC2` [Cpd. No. 32, N-((8-(4-(trifluoromethyl)phenyl)-1,2,3,4-tetrahydroisoquinolin-6-yl)methyl)acetamide] had an IC50 above 10000 nM. The figure for `C=CC(=O)NCc1cc2c(c(-c3ccc(C(F)(F)F)cc3)c1)CNCC2` [Cpd. No. 33, N-((8-(4-(trifluoromethyl)phenyl)-1,2,3,4-tetrahydroisoquinolin-6-yl)methyl)acrylamide] is below 1000 nM. For the compound `[2H]C([2H])([2H])C(=O)NCC1Cc2ncccc2N(c2ccc(C(F)(F)F)cc2)C1` (stereo not shown) [Cpd. No. 34, N-((1-(4-(trifluoromethyl)phenyl)-1,2,3,4-tetrahydro-1,5-naphthyridin-3-yl)methyl)acetamide-2,2,2-d3], the IC50 was below 1000 nM.

For `O=C(Cc1ccccc1)NCC1Cc2ncccc2N(c2ccc(C(F)(F)F)cc2)C1` (stereo not shown) [Cpd. No. 35, 2-phenyl-N-((1-(4-(trifluoromethyl)phenyl)-1,2,3,4-tetrahydro-1,5-naphthyridin-3-yl)methyl)acetamide], the IC50 lay within 1000 to 10000 nM. For the compound `C=CC(=O)N(CC(=O)O)Cc1cc2c(c(-c3ccc(C(F)(F)F)cc3)c1)CNCC2` [Cpd. No. 36, N-acryloyl-N-((8-(4-(trifluoromethyl)phenyl)-1,2,3,4-tetrahydroisoquinolin-6-yl)methyl)glycine], the IC50 was above 10000 nM.
